US5091397A (priority 1988, dated 1992)
Counter-ions that a name gives are not always drawn. Like-named read-outs stand apart in the source and are kept apart here.

Tests used:
muscarinic receptors [1] = experiment: Radio ligand binding: displacement of the muscarinic agonist 3H-Oxotremorine-M (3H-OXO-M) from cerebral cortex membranes; design: species or system Hooded Lister rats; conditions: displacement of muscarinic agonist 3H-OXO-M (2nM), rat cerebral cortex, 2mM magnesium chloride, 37° C., 30 min
muscarinic receptors [2] = format: binding, Hooded Lister rats; conditions: displacement of muscarinic antagonist 3H-QNB (0.27nM), rat cerebral cortex, 37° C., 30 min

SMILES | IC50 (muscarinic receptors [1]) [nM] | IC50 (muscarinic receptors [2]) [nM]
c1coc(CC2CN3CCC2CC3)n1 (racemic) [Example E3, (±) 3-(1,3-Oxazol-2-yl)methyl]-1-azabicyclo[2.2.2]octane oxalate salt] | 755 | 7000
c1ncc(C[C@H]2CN3CC[C@@H]2C3)o1 (relative stereo) [Example E8, (±) endo 3-(1,3-Oxazol-5-yl)methyl-1-azabicyclo[2.2.1]heptane hydrochloride salt] | 625 | 38000
Cn1nnc(C[C@H]2CN3CC[C@@H]2C3)n1 (relative stereo) [Example E11, (±) endo 3-[(2-Methyltetrazol-5-yl)methyl]-1-azabicyclo[2.2.11]heptane oxalate salt] | 340 | 8000
c1coc(CC23CCCN(CC2)C3)c1 (racemic) [Example E12, (±) 5-[(Fur-2-yl)methyl-1-azabicyclo[3.2.1]octane oxalate salt] | 660 | 4000
c1coc(C[C@H]2CN3CC[C@@H]2C3)n1 (relative stereo) [Example E7, (±) endo 3-(1,3-Oxazol-2-yl)methyl]-1-azabicyclo[2.2.1]heptane oxalate salt] | 42 | 8000
Nc1noc(CC23CCN(CC2)C3)n1 [Example E13, 4-[(3-Amino-1,2,4-oxadiazol-5-yl)methyl]-1-azabicyclo[2.2.1]heptane] | 118 | 85000
Nc1noc(CC23CCCN(CC2)C3)n1 (racemic) [Example E4, (±) 5-[(3-Amino-1,2,4-oxadiazol-5-yl)methyl]-1-azabicyclo[3.2.1]octane] | 580 | 6700
c1coc(CC23CCN(CC2)C3)n1 [Example E14, 4-[(1,3-Oxazol-2-yl)methyl]-1-azabicyclo[2.2.1]heptane oxalate salt] | 410 | 74000
c1coc(C[C@@H]2CN3CC[C@@H]2C3)n1 (relative stereo) [Example E10, (±) exo 3-(1,3-Oxazo1-2-yl)methyl-1-azabicyclo [2.2.1]heptane oxalate salt] | 38 | 5600
Nc1noc(C[C@H]2CN3CC[C@@H]2C3)n1 (relative stereo) [Example E5, (±) endo 3-[(3-Amino-1,2,4-oxadiazol-5-yl)methyl]-1-azabicyclo[2.2.1]heptane] | 32 | 21000
Cc1noc(CC2CN3CCC2CC3)n1 (racemic) [Example E2, (±) 3-[(3-Methyl-1,2,4-oxadiazol-5-yl)methyl]-1-azabicyclo[2.2.2]octane hydrochloride salt] | 1050 | 13000
Nc1noc(C[C@@H]2C[C@@H]3CCN(C2)C3)n1 (relative stereo) [Example E9, (±) endo 3-[(3-Amino-1,2,4-oxadiazol-5-yl)methyl]-1-azabicyclo[3.2.1]octane] | 925 | 4600
Cc1nc(C[C@@H]2CN3CC[C@@H]2C3)no1 (relative stereo) [Example E16, (±) exo 3-[(5-Methyl-1,2,4-oxadiazol-3-yl)methyl)-1-azabicyclo[2.2.1]heptane hydrochloride salt] | 1000 | –
Cc1noc(C[C@H]2CN3CC[C@@H]2C3)n1 (relative stereo) [Example E6, (±) endo 3-(3-Methyl-1,2.4-oxadiazol-5-yl)methyl-1-azabicyclo[2.2.1]heptane oxalate salt] | 150 | 10200
Nc1noc(C[C@@H]2CN3CC[C@@H]2C3)n1 (relative stereo) [Example E1, (±) exo 3-[(3-Amino-1,2,4-oxadiazol-5-yl)methyl]-1-azabicyclo[2.2.1]heptane] | 36.5 | 7500
Cc1nc(C[C@H]2CN3CC[C@@H]2C3)no1 (relative stereo) [Example E15, (±) endo 3-[(5-Methyl-1,2,4-oxadiazol-3-yl)methyl-1-azabicyclo[2.2.11]heptane hydrochloride salt] | 950 | 30500
c1csc(CC2CN3CCC2CC3)n1 (racemic) [Example E17, (±) 3-((1,3-Thiazol-2-yl)methyl)-1-azabicyclo[2.2.2]octane oxalate salt] | 875 | –
